Test results: PubChem BioAssay (NCI)
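Protocol summary: plate cells (96-well), add compound at 5 concentrations, incubate 48 h, interpolate endpoints linearly. TGI denotes the concentration required for complete inhibition of growth.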

Legend:
Test in all cases: NCI-60 cell line screen, 48 h
[1] = test system: A498 renal
[2] = test system: ACHN renal
[3] = test system: DMS 114 small cell lung
[4] = test system: DMS 273 small cell lung
[5] = test system: DU-145 prostate
[6] = test system: HOP-18 NSCLC
[7] = test system: IGROV1 ovarian
[8] = test system: KM20L2 colon
[9] = test system: LOX IMVI melanoma
[10] = test system: LXFL 529 NSCLC
[11] = test system: M19-MEL melanoma
[12] = test system: MDA-MB-435
[13] = test system: OVCAR-4 ovarian
[14] = test system: SK-MEL-28 melanoma
[15] = test system: SNB-78 CNS
[16] = test system: UACC-257 melanoma
[17] = test system: XF 498 CNS
[18] = test system: DLD-1 colon
[19] = test system: MCF7 breast

CC1=CC(=O)c2cccc(O)c2C1=O gave a TGI [1] of 33.5 µM, a TGI [2] of 3.17 µM and a TGI [3] of 7.89 µM. The TGI [4] was 5.01 µM, the TGI [5] was 20.6 µM and the TGI [6] was 3.07 µM. It also gave a TGI [7] of 26 µM, a TGI [8] of 41.6 µM and a TGI [9] of 8.6 µM. It also gave a TGI [10] of 3.06 µM, a TGI [11] of 4.05 µM and a TGI [12] of 3.28 µM. For the same compound, the TGI [13] was 3.39 µM, the TGI [14] was 7.81 µM and the TGI [15] was over 62.4 µM. It also gave a TGI [16] of 3.36 µM and a TGI [17] of 3.2 µM.

Work on CC(=O)C1CC2(c3ccccc3)C(=O)c3ccccc3N2O1 (configuration not stated) yielded a TGI [1] of over 100 µM, a TGI [2] of over 100 µM and a TGI [18] of over 100 µM. For the same compound, the TGI [3] was over 100 µM, the TGI [4] was over 100 µM and the TGI [6] was over 100 µM. It also gave a TGI [7] of over 100 µM, a TGI [8] of over 100 µM and a TGI [10] of over 100 µM. The TGI [11] was over 100 µM, the TGI [13] was over 100 µM and the TGI [14] was over 100 µM. It also gave a TGI [15] of over 100 µM, a TGI [16] of over 100 µM and a TGI [17] of over 100 µM.

For COC(=O)c1ccc(NCc2cc(O)c3ccccc3c2O)cc1, the TGI [1] was 36.7 µM, the TGI [2] was 25.7 µM and the TGI [5] was 30.3 µM. It also gave a TGI [7] of 25.5 µM, a TGI [9] of 11.5 µM and a TGI [19] of 21.3 µM. The TGI [12] was 4.63 µM, the TGI [13] was 25.9 µM and the TGI [14] was 18.3 µM. It also gave a TGI [16] of 20.5 µM.

S=c1scc(-c2ccc(Cl)cc2)n1OC1CCCC1 gave a TGI [1] of 79.8 µM, a TGI [2] of 90.4 µM and a TGI [5] of over 100 µM. The TGI [7] was over 100 µM, the TGI [9] was over 100 µM and the TGI [19] was 81.6 µM. For the same compound, the TGI [12] was 79.3 µM, the TGI [13] was over 100 µM and the TGI [14] was over 100 µM. The TGI [16] was over 100 µM.

With Nc1nonc1-c1noc(-c2nonc2N)[n+]1[O-] the TGI [1] was over 100 µM, the TGI [2] was over 100 µM and the TGI [5] was over 100 µM. For the same compound, the TGI [7] was over 100 µM, the TGI [9] was over 100 µM and the TGI [19] was over 100 µM. It also gave a TGI [12] of over 100 µM, a TGI [13] of over 100 µM and a TGI [14] of over 100 µM. The TGI [16] was over 100 µM.

With COC(=O)c1ccccc1C1CN=NC12Cc1c(C)c3c(c(C)c1C2=O)CCC3 (configuration not stated) the TGI [1] was over 100 µM, the TGI [2] was over 100 µM and the TGI [5] was over 100 µM. For the same compound, the TGI [7] was over 100 µM, the TGI [9] was over 100 µM and the TGI [19] was over 100 µM. It also gave a TGI [12] of over 100 µM, a TGI [13] of over 100 µM and a TGI [14] of over 100 µM. The TGI [16] was over 100 µM.

CCCCCCCCCCCCCCCCCCNc1ccn(C2OC(COP(=O)(O)OCCCCCCCCCCCCCCCC)C(O)C2O)c(=O)n1 (configuration not stated) gave a TGI [1] of over 100 µM, a TGI [2] of over 100 µM and a TGI [5] of over 100 µM. The TGI [7] was over 100 µM, the TGI [9] was over 100 µM and the TGI [19] was over 100 µM. For the same compound, the TGI [12] was over 100 µM, the TGI [13] was over 100 µM and the TGI [14] was over 100 µM. It also gave a TGI [16] of over 100 µM.

Work on O=C1c2ccccc2C(=O)c2[nH]c(=O)c(/C=N/Nc3ccc([N+](=O)[O-])cc3)nc21 yielded a TGI [1] of 14.2 µM, a TGI [2] of 45.4 µM and a TGI [5] of 2.88 µM. It also gave a TGI [7] of over 48.8 µM, a TGI [9] of over 39.2 µM and a TGI [19] of over 44 µM. For the same compound, the TGI [12] was 3.99 µM, the TGI [13] was over 75.5 µM and the TGI [14] was over 30.5 µM. The TGI [16] was 5.88 µM.

For c1ccc(N=C2SC(c3ccccc3)CN2C23CC4CC(CC(C4)C2)C3)cc1 (configuration not stated), the TGI [1] was over 100 µM, the TGI [2] was over 100 µM and the TGI [5] was over 100 µM. For the same compound, the TGI [7] was over 100 µM, the TGI [9] was over 100 µM and the TGI [19] was over 100 µM. For the same compound, the TGI [12] was over 100 µM, the TGI [13] was over 100 µM and the TGI [14] was over 100 µM. For the same compound, the TGI [16] was over 100 µM.

With COc1cccc(N2CCc3c(C)c(C#N)c4nc5ccccc5n4c32)c1 the TGI [1] was over 100 µM, the TGI [2] was over 100 µM and the TGI [5] was over 100 µM. It also gave a TGI [7] of over 100 µM, a TGI [9] of over 100 µM and a TGI [19] of over 100 µM. The TGI [12] was over 100 µM, the TGI [13] was over 100 µM and the TGI [14] was over 100 µM. It also gave a TGI [16] of over 100 µM.
